Here are results for 22 compounds from ChEMBL document CHEMBL1681658, “Design, synthesis and SAR of a series of 1,3,5-trisubstituted benzenes as thrombin inhibitors” (Bioorg Med Chem Lett, 2011).

Test [1] is described as follows: Inhibition of trypsin.
Test [2] relates to Plasma. Briefly: Anticoagulant activity in human plasma assessed as concentration required to double activated partial thromboplastin time. The test is classed as functional.
The target in test [3] is Prothrombin (Homo sapiens, UniProt P00734). Briefly: Inhibition of thrombin.

For orientation: Ki means the dissociation constant of the complex between target and ligand, obtained from inhibition or displacement. A higher Ki goes with lower affinity. On to `Cc1cc(C(=O)NCc2cc(Cl)ccc2-n2cnnn2)cc(C2CNCCC2CC(C)C)c1` (stereo unspecified), for which the inhibitory constant (Ki) in test [1] is 278 µM; in test [3], 0.0018 µM. Moreover, in test [2], the 2aPTT amounted to 1.42 µM.
For the compound `Cc1cc(C(=O)NCc2cc(Cl)ccc2CN)cc(C(=O)N(CC(C)C)CC(C)C)c1`, the Ki amounted to 111 µM in test [1] and 0.00068 µM in test [3]. The 2aPTT in test [2] amounted to 1.6 µM.
For `Cc1cc(NC2CCCCC2)cc(C(=O)NCc2cc(Cl)ccc2-n2cnnn2)c1` the same measures were over 100 µM, 0.0096 µM and over 8.2 µM.
For `Cc1cc(OCCc2ccccc2CN)cc(C(=O)N(CC(C)C)CC(C)C)c1`, the results for the Ki in test [1] and in test [3] were 29 µM and 0.0029 µM, respectively. Also, in test [2], the 2aPTT was 3.6 µM.
Take `COc1ccc(Cl)cc1CCOc1cc(C)cc(C(=O)N(CC(C)C)CC(C)C)c1`: the results for the inhibition constant (Ki) in test [1] and in test [3] were over 100 µM and 0.034 µM, respectively.
Take `Cc1cc(OCCc2ccccc2-n2cnnn2)cc(C(=O)N(CC(C)C)CC(C)C)c1`: the values for the inhibition constant (Ki) in test [1] and in test [3] were 37 µM and 0.0017 µM, respectively. Moreover, the 2aPTT in test [2] turned out to be 4.4 µM.
Turning to `Cc1cc(OCC(F)(F)c2cc(C)ccn2)cc(C(=O)N(CC(C)C)CC(C)C)c1`, the figures for the Ki in test [1] and in test [3] were over 100 µM and 0.037 µM, respectively.
For the compound `Cc1cc(C(=O)NCc2cc(Cl)ccc2-n2cnnn2)cc(-c2c[n+]([O-])ccc2C(C)C)c1`, the Ki amounted to 483 µM in test [1] and 0.00077 µM in test [3]. Further, in test [2], the 2aPTT amounted to 0.38 µM.
Consider `Cc1cc(OCCc2cc(Cl)ccc2OCC(=O)NC2CCCNC2)cc(C(=O)N(CC(C)C)CC(C)C)c1` (stereo unspecified), for which the results for the Ki in test [1] and in test [3] were 78 µM and 0.0016 µM, respectively. For the same compound, the 2aPTT in test [2] was over 8.2 µM.
Take `CC(=O)c1ccncc1-c1cc(C)cc(C(=O)NCc2cc(Cl)ccc2-n2cnnn2)c1`: the Ki in test [1] is over 100 µM; in test [3], 0.085 µM.
For the compound `Cc1cc(C(=O)NCc2cc(Cl)ccc2-n2cnnn2)cc(C(=O)N(CC(C)C)CC(C)C)c1`, the values for the Ki in test [1] and in test [3] were 29 µM and 0.00027 µM, respectively. For the same compound, the 2aPTT in test [2] worked out at 1.2 µM.
In the case of `Cc1cc(C(=O)NCc2cc(Cl)ccc2-n2cnnn2)cc(-c2cnccc2N(C)C)c1`, the Ki in test [1] is 302 µM; in test [3], 0.067 µM.
For `Cc1cc(C(=O)NCc2ccccc2-n2cnnn2)cc(C(=O)N(CC(C)C)CC(C)C)c1` the same measures were over 100 µM and 0.05 µM.
For the compound `Cc1cc(C(=O)NCc2cc(Cl)ccc2-n2cnnn2)cc(N(C2CCCC2)S(C)(=O)=O)c1`, the Ki in test [1] was over 100 µM; in test [3] it was 0.00125 µM. The 2aPTT in test [2] was 0.75 µM.
For `Cc1cc(C(=O)NCc2cc(Cl)ccc2-n2cncn2)cc(C(=O)N(CC(C)C)CC(C)C)c1` the same measures were over 100 µM, 0.007 µM and 5.3 µM.
The corresponding values for `Cc1cc(C(=O)NCc2cc(Cl)ccc2-n2cnnn2)cc(N(CCN)C2CCCCC2)c1` are 75 µM, 0.0016 µM and 1.48 µM.
The corresponding values for `Cc1cc(C(=O)NCc2cc(Cl)ccc2-n2cnnn2)cc(N(C2CCCCC2)S(C)(=O)=O)c1` are over 100 µM, 0.00093 µM and 0.87 µM.
`Cc1cc(OCCc2nc[nH]c2C)cc(C(=O)N(CC(C)C)CC(C)C)c1`: the Ki amounted to 2.6 µM in test [1] and 0.0035 µM in test [3]. In test [2], the 2aPTT worked out at 4.1 µM.
Consider `Cc1cc(C(=O)NCc2cc(Cl)ccc2-n2cnnn2)cc(-c2cnccc2C(C)C)c1`, for which the Ki in test [1] is over 100 µM; in test [3] it was 0.00027 µM. Further, the 2aPTT in test [2] was found to be 1.5 µM.
For the compound `Cc1cc(OCCc2cc(Cl)ccc2-n2cncn2)cc(C(=O)N(CC(C)C)CC(C)C)c1`, the Ki in test [1] came to 28 µM; in test [3], 0.00093 µM. In test [2], the 2aPTT came out at 7.1 µM.
In the case of `CC(=O)N(c1cc(C)cc(C(=O)NCc2cc(Cl)ccc2-n2cnnn2)c1)C1CCCCC1`, the Ki in test [1] was over 100 µM; in test [3], 0.0041 µM. For the same compound, in test [2], the 2aPTT was 1.67 µM.
Take `COC(=O)COc1ccc(Cl)cc1CCOc1cc(C)cc(C(=O)N(CC(C)C)CC(C)C)c1`: the Ki in test [1] was over 100 µM; in test [3] it was 0.00073 µM. In addition, the 2aPTT in test [2] is over 8.2 µM.
